# Assay results taken from patent US20240207327A1, “COMPOSITION INCLUDING PROPOLIS AND SORBUS COMMIXTA AS ACTIVE INGREDIENTS FOR ALLEVIATING AND TREATING INFLAMMATORY DISEASES AND ALLERGIC DISEASES” (Andong National University Industry-Academic Cooperation …, priority 2022, published 2024).
# What was measured:
# [1] = system: RAW 264.7 cell line; experiment: Nitric oxide (NO) production assay in LPS-treated RAW 264.7 (Griess reagent); type: cell-based, mouse; conditions: for NO production rate compared with control / NO production, combined treatment / NO production compared to the control: LPS 100 ng/mL; for NO production rate compared with control / NO production compared to the control: independent treatment; for NO production rate compared with control: 10 μg/mL; for inhibitory effect on NO production (in words): LPS-induced RAW 264.7, independent treatment
# Experimental: (§1) RAW 264.7 cell line, a mouse macrophage cell line was purchased from KCLB (Korean Cell Line Bank, Korea). After RAW 264.7 was added with 10% fetal bovine serum (FBS, GIBCO, USA) and 1% antibiotics-antimycotic (GIBCO, USA), the cell was subcultured in Dulbecco's modified Eagle's medium (DMEM, WELGENE, Korea) in a 37° C., 5% CO2 incubator (Thermo Fisher Inc., USA).
# After RAW 264.7 cell line was independently treated with any one of the flavonoid componentsor Sorbus commixta extract, and was combinedly treated with any one of the flavonoid components and the Sorbus commixta extract, an evaluation of Nitric Oxide production (NO assay) was conducted to identify effects on NO secretion induced by LPS.
# At this time, RAW 264.7 cells were seeded at 1×10^5 cells/well in 96-well plates and cultured in a 37° C., 5% CO2 incubator for 24 hours. Each cell was pretreated with samples by concentration (pinocembrin, quercetin, kaempferol, glangin, and chrysin at concentrations of 1, 2.5, 5, and 10 μg/mL, caffeic acid and p-Coumaric acid at concentrations of 2.5, 5, 10, and 25 μg/mL, and Sorbus commixta ethanol extract at concentrations of 25, 50, 100, and 250 ppm), respectively, and then the cells were treated with LPS (Sigma-Aldrich Inc, USA) to a final concentration of 100 ng/mL to induce the inflammatory response for 20 hours. After the induction of the inflammatory response, a 100 μL supernatant of a 96-well plate was added with a 100 μL Griess reagent (Sigma-Aldrich Inc., USA) at a concentration of 40 mg/mL (in water), and reacted in the dark for 15 minutes, and the optical density was measured at 540 nm using a Tecan infinite 200 microplate reader (Tecan Trading AG, Switzerland). A quantitative line was drawn using Sodium nitrite (Sigma-Aldrich Inc., USA), and each value of optical density was substituted to the quantitative line to determine the amount of produced Nitric Oxide (NO).
# In the inflammatory response of macrophages induced by LPS treatment, the treatment effects of any one of the flavonoid components or Sorbus commixta ethanol extract on NO production were determined.
# [2] = system: RBL-2H3 basophilic cell line; experiment: beta-Hexosaminidase release assay (degranulation by anti-DNP-IgE / DNP-BSA); type: cell-based, Rat; conditions: for beta-Hexosaminidase released compared to the positive control / degree of degranulation of RBL-2H3 cells (in words): independent treatment; for beta-Hexosaminidase released compared to the positive control: 1 hour pretreatment
# Experimental: Effects of quercetin, kaempferol, chrysin, and Sorbus commixta ethanolic extract on allergic response were determined by measuring the release of beta-Hexosaminidase through degranulation caused by the antibody-antigen binding in the RBL-2H3 basophilic cells. The RBL-2H3 basophilic cell line of Rat was purchased from ATCC (American Type Culture Collection, USA), and then it was added with a 10% fetal bovine serum and a 1% antibiotics-antimycotic in Dulbecco's modified Eagle's medium, and was subcultured in a 37° C., 5% CO2 incubator. A beta-Hexosaminidase release assay was carried out to figure out effects of independent treatment of any one of the flavonoid components or the Sorbus commixta ethanolic extract, and combined treatment of any one of the flavonoid components (quercetin, kaempferol, chrysin) with Sorbus commixta ethanolic extract on the release of beta-Hexosaminidase through the degranulation of RBL-2H3 basophilic cell line. The RBL-2H3 cells were seeded at 8×10^4 cells/well in the 96 well plates, and stabilized in a 37° C., 5% CO2 incubator for 3 hours, then treated with anti-DNP-IgE (Sigma-Aldrich Inc., USA) to a final concentration of 250 ng/mL for cell sensitization, and incubated for 24 hours. After culturing, the supernatant liquid was removed and washed twice with Siraganian buffer (NaCl 119 mM, KCl 5 mM, Glucose 5.6 mM, PIPES 25 mM, MgCl2, 0.4 mM, CaCl2 1 mM, BSA 0.1%, pH 7.2, Biosolution, Korea), and concentration-specific samples dissolved in Siraganian buffer were pretreated into the cells for 1 hour. After the pretreatment, the final concentration of DNP-BSA (Sigma-Aldrich Inc., USA) was treated to be at 150 ng/mL, and cultured for 1 hour to induce degranulation. After degranulation induction, 80 μL of supernatant and 20 μL of 10 mM 4-Nitrophenyl N-acetyl-β-D-glucosaminide (in 0.1 M citrate buffer, pH 4.5, Sigma-Aldrich Inc., USA) were reacted in the 96 well plate for 4 hours at a 37° C. incubator. After 4 hours, the reaction was terminated by adding 100 μL of 0.5 M sodium carbonate, and the optical density was measured at 405 nm using a Tecan infinite 200 microplate reader. First, RBL-2H3 cells' degranulation induced by antibody-antigen binding was determined when independently treated with any one of the flavonoid components or Sorbus commixta ethanolic extract. RBL-2H3 cells were sensitized with antibodies for one day, pretreated with different concentration levels of 3 selected flavonoid components, or Sorbus commixta ethanol extract for one hour, followed by additionally being treated with antigens. A group treated with neither the extract nor the antigen was a negative control, and a group independently treated with ethanol as the solvent for the sample and induced for degranulation only was a positive control. When RBL-2H3 cell degranulation is induced by antibody-antigen binding, beta-Hexosaminidase, an indicator of early response is released. On top of that, a substrate addition (P-NAG) leads to the degradation of the substrate and the suspension of the degradation reaction, resulting in a color change. In that case, the amount of beta-hexosaminidase may be determined by measuring the optical density, which may it possible to compare the degree of induced inhibition or induced activation of degranulation. The changes in the amount of beta-Hexosaminidase released by the combined treatment of the Sorbus commixta ethanolic extract with any one of the three selected active ingredients of the flavonoid components were intended to be determined. A group treated with neither the extract nor the antigen was a negative control, and a group independently treated with ethanol as the solvent for the sample and induced for degranulation only was a positive control.
# [3] = system: RAW 264.7 cell line; experiment: MTT cell viability assay, RAW 264.7; type: cell-based; conditions: mouse, 24 h, 10 μg/mL
# Experimental: as §1
# A cell viability rate was analyzed by carrying out an MTT assay in order to determine the toxicity of the flavonoid components and Sorbus commixta ethanolic extract on the cell line treatment. The RAW 264.7 cell line was seeded 5×10^4 cells/well in a 96 well plate, and cultured in a 37° C., 5% CO2 incubator. After the culture, the flavonoid components and Sorbus commixta ethanolic extract were treated and additionally treated for the next 24 hours. After the additional culture, a 0.1 mg/mL MTT solution (Sigma-Aldrich Inc., USA) was dispensed in each well, the cells were cultured for 4 hours before the supernatant was removed. The resulting formazan was dissolved by seeding 100 μL of DMSO (Sigma-Aldrich Inc., USA) into each well, followed by orbital shaking (87.9 rpm) for 15 minutes, and optical density was measured at 540 nm using a Tecan infinite 200 microplate reader. The measured values of optical density were described as a percentage by substituting into the equation below. […]
# [4] = flavonoid 1 μg/mL (first of series) combined with Sorbus commixta ethanol extract
# [5] = flavonoid 2.5 μg/mL (second of series) combined with Sorbus commixta ethanol extract
# [6] = flavonoid 5 μg/mL (third of series) combined with Sorbus commixta ethanol extract
# [7] = flavonoid 10 μg/mL (fourth of series) combined with Sorbus commixta ethanol extract
# [8] = 1 μg/mL (first of series 1, 2.5, 5, 10 μg/mL)
Molecule,NO production rate compared with control [1],"NO production, combined treatment [1, 4]","NO production, combined treatment [1, 5]","NO production, combined treatment [1, 6]","NO production, combined treatment [1, 7]","NO production compared to the control [1, 8]",NO production compared to the control ([1]; 2.5 μg/mL (second of series)),NO production compared to the control ([1]; 5 μg/mL (third of series)),production rate of beta-Hexosaminidase compared to the control group ([2]; 1 μg/mL mixed with 25 ppm of Sorbus commixta ethanol extract),beta-Hexosaminidase released compared to the positive control ([2]; 1 μg/mL),cell viability rate [3],inhibitory effect on NO production (in words) [1],production rate of beta-Hexosaminidase compared to the control group ([2]; 2.5 μg/mL mixed with 25 ppm of Sorbus commixta ethanol extract),degree of degranulation of RBL-2H3 cells (in words) [2],beta-Hexosaminidase released compared to the positive control ([2]; 0.5 μg/mL),production rate of beta-Hexosaminidase compared to the control group ([2]; 0.5 μg/mL mixed with 25 ppm of Sorbus commixta ethanol extract)
O=C(O)/C=C/c1ccc(O)c(O)c1 [caffeic acid],97%,–,–,–,–,–,–,–,–,–,–,–,–,–,–,–
O=c1cc(-c2ccccc2)oc2cc(O)cc(O)c12 [chrysin],10%,72%,55%,38%,9%,89%,74%,43%,95.9%,83%,–,–,–,–,–,–
O=c1c(O)c(-c2ccccc2)oc2cc(O)cc(O)c12 [galangin],82%,–,–,–,–,–,–,–,–,–,greater than 80%,–,–,–,–,–
O=c1c(O)c(-c2ccc(O)cc2)oc2cc(O)cc(O)c12 [kaempferol],42%,75%,71%,60%,39%,92%,85%,66%,–,–,–,highest inhibitory effect on NO production,79.8%,decreased the degree of degranulation,85%,–
O=C1C[C@@H](c2ccccc2)Oc2cc(O)cc(O)c21 [pinocembrin],90%,–,–,–,–,–,–,–,–,–,greater than 80%,–,–,–,–,–
O=c1c(O)c(-c2ccc(O)c(O)c2)oc2cc(O)cc(O)c12 [quercetin],41%,78%,70%,55%,39%,97%,81%,63%,–,–,–,highest inhibitory effect on NO production,–,decreased the degree of degranulation,64%,86.8%
p-coumaric acid (4-Hydroxycinnamic acid),90%,–,–,–,–,–,–,–,–,–,–,–,–,–,–,–
